{"source": "BindingDB's records for patent US9394289", "about": "(Janssen Pharmaceutica, 2016)", "molecular_target": "Macrophage colony-stimulating factor 1 receptor (Homo sapiens, UniProt P07333)", "sequence (P07333 whole entry)": "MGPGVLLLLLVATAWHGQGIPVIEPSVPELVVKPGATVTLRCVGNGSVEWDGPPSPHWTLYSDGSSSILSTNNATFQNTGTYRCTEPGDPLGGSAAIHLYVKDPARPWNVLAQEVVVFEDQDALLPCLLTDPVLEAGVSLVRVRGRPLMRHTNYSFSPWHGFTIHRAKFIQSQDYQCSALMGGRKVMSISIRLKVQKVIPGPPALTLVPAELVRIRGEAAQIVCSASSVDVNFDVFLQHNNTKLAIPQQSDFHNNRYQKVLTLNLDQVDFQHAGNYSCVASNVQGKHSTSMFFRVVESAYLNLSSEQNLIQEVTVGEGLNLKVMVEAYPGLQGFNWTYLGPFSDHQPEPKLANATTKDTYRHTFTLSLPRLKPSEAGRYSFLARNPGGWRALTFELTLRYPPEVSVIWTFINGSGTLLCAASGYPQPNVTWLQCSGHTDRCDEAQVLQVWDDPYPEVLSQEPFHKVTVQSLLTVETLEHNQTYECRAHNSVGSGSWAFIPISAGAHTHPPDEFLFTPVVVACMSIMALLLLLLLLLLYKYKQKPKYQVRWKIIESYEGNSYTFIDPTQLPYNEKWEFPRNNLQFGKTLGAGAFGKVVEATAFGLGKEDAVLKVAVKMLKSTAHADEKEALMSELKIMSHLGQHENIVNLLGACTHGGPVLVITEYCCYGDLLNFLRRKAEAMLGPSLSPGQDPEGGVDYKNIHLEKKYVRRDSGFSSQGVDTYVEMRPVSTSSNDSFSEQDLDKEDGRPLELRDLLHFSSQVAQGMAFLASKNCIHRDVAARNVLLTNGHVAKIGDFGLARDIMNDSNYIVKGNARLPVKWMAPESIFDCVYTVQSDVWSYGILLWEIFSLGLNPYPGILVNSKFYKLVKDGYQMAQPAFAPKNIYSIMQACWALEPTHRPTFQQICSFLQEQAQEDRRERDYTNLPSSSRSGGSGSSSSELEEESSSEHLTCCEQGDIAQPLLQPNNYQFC", "experiment": "Fluorescence Polarization Competition Immunoassay", "settings": "pH 7.5; 25 °C", "procedure": "The assay buffer used was 100 mM 4-(2-hydroxyethyl)piperazine 1-ethanesulfonic acid (HEPES), pH 7.5, 1 mM 1,4-dithio-DL-threitol (DTT), 0.01% (v/v) Tween-20. Compounds were diluted in assay buffer containing 4% dimethylsulfoxide (DMSO) just prior to the assay. To each well, 5 μL of compound were added followed by the addition of 3 μL of a mix containing 33 nM c-fms (Johnson & Johnson PRD) and 16.7 mM MgCl2 (Sigma) in assay buffer. The kinase reaction was initiated by adding 2 μL of 5 mM ATP (Sigma) in assay buffer. The final concentrations in the assay were 10 nM c-fms, 1 mM ATP, 5 mM MgCl2, 2% DMSO. Control reactions were ran in each plate: in positive and negative control wells, assay buffer (made 4% in DMSO) was substituted for the compound; in addition, positive control wells received 1.2 μL of 50 mM ethylenediaminetetraaceticacid (EDTA). The plates were incubated at room temperature for 45 min. At the end of the incubation, the reaction was quenched with 1.2 μL of 50 mM EDTA (EDTA was not added to the positive control wells at this point; see above). Following a 5-min incubation, each well received 10 μL of a 1:1:3 mixture of anti-phosphotyrosine antibody, 10×, PTK green tracer, 10× (vortexed), FP dilution buffer, respectively (all from PanVera, cat. #P2837). The plate was covered, incubated for 30 min at room temperature and the fluorescence polarization was read on the Analyst. […]", "note": "pIC50: −log10 of the molar value."}
{"smiles": "N#Cc1c[nH]c(C(=O)Nc2ccc(C3(O)CCS(=O)(=O)CC3)cc2C2=CCCCC2)n1", "note": "[US9394289, 15]", "values": [{"measurement": "pIC50", "result": 8.54}]}
